Data as given in patent US20170298406A1, “SALT OF PHENYLGLYCINE METHYL ESTER” (DSM Sinochem Pharmaceuticals Netherlands B.V., priority 2014, published 2017).
Counter-ions that a name gives are not always drawn.

Experiment: Solubility of (PGMH)2SO4 in water as a function of temperature (HPLC of filtered supernatant)
Assay type: physicochemical
Details: filtrate by HPLC
Excerpt: In the preparation of (PGMH)2SO4 as described in Example 2 separation of the organic phase at pH=4.2 is done while (PGMH)2SO4 is supersaturated. At some point in time, crystallization may start before the organic layer is separated from the aqueous phase. In order to design a process that will avoid crystallization of (PGMH)2SO4 in the presence of organic solvent, and controlled crystallization after separation of the organic phase, solubility of (PGMH)2SO4 as a function of temperature was investigated. The hemi sulfuric acid salt of D-phenylglycine methyl ester (1 g), obtained as described in Example 2 was mixed with water (2 g) at 20° C. and the solid material dissolved. Additional hemi sulfuric acid salt of D-phenylglycine methyl ester (1 g) was added and the mixture was agitated at 20° C. for 25 minutes. Not all solid was dissolved. An aliquot of approximately 0.5 mL of supernatant was filtered, and in the filtrate the concentration of hemi sulfuric acid salt of D-phenylglycine methyl ester was determined by HPLC. The rest of the mixture was stirred at 3° C. Water (2 mL) was added to allow mixing. […] An aliquot of approximately 0.5 mL of supernatant was filtered and in the filtrate the concentration of hemi sulfuric acid salt of D-phenylglycine methyl ester was determined by HPLC.

With `COC(=O)[C@H](N)c1ccccc1` [hemi sulfuric acid salt of D-phenylglycine methyl ester] the “Solubility in water: hemi sulfuric acid salt of D-phenylglycine methyl ester (g)/kg of solution” value (T 3 °C, agitated 30 minutes) was 268 g/kg of solution and the “Solubility in water: hemi sulfuric acid salt of D-phenylglycine methyl ester (g)/kg of solution” value (T 20 °C, agitated 25 minutes) was 478 g/kg of solution.
